Test results as given in patent US20240368118A1, “CEREBLON BINDING COMPOUNDS, COMPOSITIONS THEREOF, AND METHODS OF TREATMENT THEREWITH” (CELGENE CORPORATION, priority 2021, published 2024).

Biological target: T1, AR (Homo sapiens, UniProt P10275)
T1 construct: endogenous in cells; host or cells: VCaP cells
T1 sequence (P10275 1-920): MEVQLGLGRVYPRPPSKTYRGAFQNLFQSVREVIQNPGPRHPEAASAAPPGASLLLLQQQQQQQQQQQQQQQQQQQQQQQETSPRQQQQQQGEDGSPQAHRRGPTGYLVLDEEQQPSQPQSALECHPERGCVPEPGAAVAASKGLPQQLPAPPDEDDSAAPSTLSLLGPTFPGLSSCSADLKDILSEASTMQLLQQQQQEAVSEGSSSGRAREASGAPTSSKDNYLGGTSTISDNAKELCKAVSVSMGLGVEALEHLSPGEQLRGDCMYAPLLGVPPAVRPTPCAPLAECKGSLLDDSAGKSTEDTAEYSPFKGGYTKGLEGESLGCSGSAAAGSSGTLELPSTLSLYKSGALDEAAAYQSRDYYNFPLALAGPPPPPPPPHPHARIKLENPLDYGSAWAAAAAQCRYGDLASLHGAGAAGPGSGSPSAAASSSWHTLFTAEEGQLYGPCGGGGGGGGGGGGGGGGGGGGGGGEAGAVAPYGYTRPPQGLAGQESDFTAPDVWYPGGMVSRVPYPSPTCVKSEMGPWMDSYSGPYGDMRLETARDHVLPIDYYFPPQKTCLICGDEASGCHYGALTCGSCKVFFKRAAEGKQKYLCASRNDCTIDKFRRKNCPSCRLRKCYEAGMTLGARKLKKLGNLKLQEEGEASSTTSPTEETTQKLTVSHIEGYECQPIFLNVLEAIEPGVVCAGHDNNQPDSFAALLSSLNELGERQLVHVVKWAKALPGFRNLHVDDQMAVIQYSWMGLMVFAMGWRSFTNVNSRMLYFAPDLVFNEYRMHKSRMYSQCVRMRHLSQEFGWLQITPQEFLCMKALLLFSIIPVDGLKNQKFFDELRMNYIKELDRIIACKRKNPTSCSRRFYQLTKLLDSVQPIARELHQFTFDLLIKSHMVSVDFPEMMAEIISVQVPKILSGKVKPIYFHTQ
Experiment: VCAP AR Degradation Assay
Format: cell-based
Conditions: VCaP cells, 24 h; for DC50: AR ELISA, concentration when AR level = 50% of DMSO control; for Ymin: lowest AR level normalized to DMSO control, given as numbers
Outline: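 Total AR in lysates was quantified by sandwich ELISA after 24 h compound exposure of VCaP cells (DMEM, 8% FBS, 37° C). Ten concentrations at 1:3 steps were used, top 5 μM, with 0.1% DMSO as reference.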

SMILES	DC50 [nM]	Ymin
C[C@@H]1C[C@H](OCCO[C@H]2CC[C@H](N3C(=S)N(c4ccc(C#N)c(C(F)(F)F)c4)C(=O)C3(C)C)CC2)C[C@H](C)N1CC(=O)Nc1ccc(C2CCC(=O)NC2=O)cc1 (stereo partly drawn) [Cmpd 42, 2-((2R,4r,6S)-4-(2-(((trans)-4-(3-(4-Cyano-3-(trifluoromethyl)phenyl)-5,5-dimethyl-4-oxo-2-thioxoimidazolidin-1-yl)cyclohexyl)oxy)ethoxy)-2,6-dimethylpiperidin-1-yl)-N-(4-(2,6-dioxopiperidin-3-yl)phenyl)acetamide]	5 to 15	19 % of DMSO control
CC1(C)C(=O)N(c2ccc(C#N)c(C(F)(F)F)c2)C(=S)N1[C@H]1CC[C@H](OCCC2CCN(CC(=O)Nc3ccc(C4CCC(=O)NC4=O)cc3)CC2(F)F)CC1 (stereo partly drawn) [Cmpd 43, 2-(4-(2-(((trans)-4-(3-(4-Cyano-3-(trifluoromethyl)phenyl)-5,5-dimethyl-4-oxo-2-thioxoimidazolidin-1-yl)cyclohexyl)oxy)ethyl)-3,3-difluoropiperidin-1-yl)-N-(4-(2,6-dioxopiperidin-3-yl)phenyl)acetamide]	≤ 5	18 % of DMSO control
CC1(C)C(=O)N(c2cnc(C#N)c(C(F)(F)F)c2)C(=S)N1[C@H]1CC[C@H](OCCC2CCN(CC(=O)Nc3ccc(C4CCC(=O)NC4=O)cc3)CC2(F)F)CC1 (stereo partly drawn) [Cmpd 44, 2-(4-(2-(((trans)-4-(3-(6-Cyano-5-(trifluoromethyl)pyridin-3-yl)-5,5-dimethyl-4-oxo-2-thioxoimidazolidin-1-yl)cyclohexyl)oxy)ethyl)-3,3-difluoropiperidin-1-yl)-N-(4-(2,6-dioxopiperidin-3-yl)phenyl)acetamide]	≤ 5	12 % of DMSO control
